In paper PMC7824033, “Flavones, Flavonols, and Glycosylated Derivatives—Impact on Candida albicans Growth and Virulence, Expression of CDR1 and ERG11, Cytotoxicity” (Pharmaceuticals, 2020):
Converted amounts (≈) assume the structure as drawn. “Also recorded” adds a separate entry of the source. Like-named read-outs stand apart in the source and are kept apart here.

What was measured:
[1] = system: C. albicans 475/15 hyphal growth; assay: Anti-hyphal forming activity; assay type: cell-based, Candida albicans; conditions: MIC, 4 h, YPD + 10% FBS
Method: C. albicans 475/15 cells were incubated with MIC of tested compounds in YPD + 10% FBS, at 37 °C, for 4 h. Cells were examined under microscope (Nikon Eclipse TS2, Amsterdam, Netherland) and number of cells, growing in the yeast or hyphal and germ tube formations, was determined. Assay was performed in triplicate and percentage of hyphae was determined.

C. albicans 475/15 [2] = system: C. albicans 475/15; set-up: method as in PMID 28827996; conditions: previously published; cited from earlier work
porcine liver cells PLP2 = assay: Cytotoxicity, Sulforhodamine B assay
Method: (§1) Preparation of PLP2 cell line was performed with freshly harvested porcine liver supplied from a local slaughter house. Tissues from the liver were washed in Hank’s balanced salt solution comprising 100 U/mL penicillin and 100 μg/mL streptomycin and split into 1 × 1 mm^3 explants. Some of the prepared explants were set in 25 cm^2 tissue flasks in Dulbecco’s modified Eagle’s medium (DMEM) with 10% fetal bovine serum (FBS), 2 mM nonessential amino acids, 100 U/mL penicillin, and […] streptomycin, and incubation was conducted at 37 °C with 5% CO2 in a humidified atmosphere. The fresh medium was added every 2 days. Cultivation of the cells was further conducted with direct observation by the phase contrast microscope every 2–3 days. Before confluence was achieved, cells were subcultured and seeded in 96-well plates at a density of 1.0 × 10^4 cells per well and cultivated in DMEM supplemented with 10% FBS, 100 U/mL penicillin, and 100 μg/mL streptomycin. Previously described Sulforhodamine B assay was used for the determination of cytotoxicity. The obtained results were defined as GI50 values corresponding to the compound concentration that inhibits 50% of the net cell growth. Ellipticine was used as a positive control.

[3] = Cytotoxicity, Sulforhodamine B assay; conditions: pig
Method: as §1

3T3-L1 pre-adipocytes = conditions: up to 100 μM; cited from earlier work
CDR1 [4] = assay: Expression of CDR1 (qPCR); assay type: cell-based, Candida albicans; conditions: treatment with MIC
Method: Total RNA was isolated as described by Sanglard et al. with some modifications. C. albicans 475/15 was grown with agitation at 30 °C in YEPD until OD540 = 0.4. C. albicans cells were incubated with MIC of compounds in YEPD at 30 °C with agitation for 30 min. Cells were centrifuged (4600 rpm, 4 °C for 5 min (Rotanata 460 R, Hettich, Tuttlingen, Germany)) and the pellet was resuspended in 300 µL of RNA buffer (0.1 M Tris-HCl pH 7.5, 0.1M LiCl, 10mM EDTA, 0.5% SDS). The pellet was homogenized with 200 µL of DEPC treated glass beads and 300 µL of Phenol:Chloroform:Isoamyl Alcohol (Sigma-Aldrich, Darmstadt, Germany) in Precellys Evolution tissue homogenizer (Bertion instruments, Montigny-le-Bretonneux, France) at 4500 rpm for 5 s. After centrifugation (14,000 rpm, 4 °C, 1 min (Universal 32 R, Hettich, Tuttlingen, Germany)) 200 µL of supernatant was vortexed with 250 µL of Phenol:Chloroform:Isoamyl Alcohol for 10 s. Samples were centrifuged (14,000 rpm, 4 °C, 1 min) and 200 µL of supernatant was transferred to new tubes, 400 µL of ice-cold 99% ethanol was added to each tube, and they were kept on dry ice for 10 min. Samples were centrifuged (14,000 rpm, 4 °C, 2 min), pellet was washed with ethanol (70%), left to dry at room temperature, after which it was dissolved in 50 µL of DEPC treated water. Nanodrop (ND-1000, Witec AG, Sursee, Switzerland) was used for determination of concentration and purity of samples. RNA was stored at −80°C.
Amount of 10 µg RNA was incubated with 5 µL of DNAse buffer and 1 µL of DNAse at 37 °C for 30 min (DNA-free™ DNA Removal Kit, Ambion, Bleiswijk, Netherlands). After addition of DNAse inactivation reagent tubes were kept at room temperature with occasional vortexing for 5 min. Samples were centrifuged (14,000 rpm, 4°C, 2 min) and the concentration and quality of supernatant were analyzed on Nanodrop (ND-1000, Witec AG, Sursee, Switzerland).
Synthesis of cDNA was done with a Transcriptor High Fidelity cDNA synthesis kit (Roche). RNA (1 µg) was incubated with 60 µM random hexamer primers, in 11.4 µL of total sample volume, at 65 °C for 10 min. The mixture of Transcriptase reaction buffer 5×, Deoxynucleotide mix, DTT, Protector RNAse inhibitor, and Transcriptor High Fidelity Reverse Transcriptase was added to each tube according to manufacturer instructions. Synthesis of cDNA was completed by incubating the mixture at 50 °C for 30 min and 85 °C for 5 min (Peqstar thermocycler, Peqlab, Erlangen, Germany).
Wells of MicroAmp Fast 96-Well Reaction plate ((0.1 mL), Applied biosystems, Waltham, MA, USA) were incubated with 10 µL of mixture (cDNA, 2× MasterMix, primers, probe (Table 3), and water). Analysis was performed in StepOnePlus Real Time PCR system with relative standard curve method. Expression levels of CDR1 and ERG11 were normalized to expression of ACT1.

[5] = system: C. albicans 475/15 biofilm formation; assay: Inhibition of biofilm formation (crystal violet); assay type: cell-based, Candida albicans
Method: Potential of selected compounds to interfere with C. albicans 475/15 biofilm formation was investigated as previously described. Briefly, C. albicans 475/15 was incubated with serial dilution of the compounds (MIC and subMICs) in YPD medium, in 96-well microtiter plates with adhesive bottom (Sarstedt, Nümbrecht, Germany), at 37 °C for 24 h. After incubation, wells were washed twice with sterile PBS and methanol was added into each well. After fixation, methanol was discarded, and the plate was air dried. Formed biofilms were stained with 0.1% crystal violet (Bio-Merieux, Craponne, France) for 30 min. The plate was gently washed under the tap of water and air dried. The stain bound to the remaining biofilms was dissolved with ethanol (96%, Zorka, Šabac, Serbia). Absorbance was read on a Multiskan™ FC Microplate Photometer, Thermo Scientific™. The percentage of inhibition of biofilm formation was calculated by the formula:[(A620control − A620sample)/A620control] × 100

CDR1 [6] = conditions: identical assay, previously published; cited from earlier work
C. albicans 13/15 = assay: Microdilution assay, MIC and MFC; assay type: cell-based; conditions: Candida albicans, C. albicans 13/15, mean ± SD of three replicates; for MFC: read-out: MFC; for MIC: read-out: MIC
From the text: (§2) C. albicans was isolated from oral cavities of patients at ENT Clinic, Clinical Hospital Centre Zvezdara, Belgrade, Serbia after obtaining informed written consent and identified by using CHROMagar plates (Biomerieux, Craponne, France). Strains were maintained on Sabouraud Dextrose Agar (Merck, Darmstadt, Germany) and are deposited at the Mycological Laboratory, Department of Plant Physiology, Institute for Biological Research “Siniša Stanković”, National Institute of Republic of Serbia, University of Belgrade. The collection of samples was approved by the Ethical Committee (Office for Human Research Protection, Zvezdara University Medical Center, Belgrade, Serbia, document issued 26 October 2016).
(§3) Microdilution assay with some modification was used for determination of minimum inhibitory (MIC) and minimum fungicidal concentrations (MFC). Yeast cultures were adjusted to 1.0 × 10^5 CFU/per well with sterile PBS (Phosphate buffered saline, pH 7.4). The 96-well microtiter plates with serially diluted flavonoids (concentration range 0.3–75 µg/mL) in liquid broth were incubated at 37 °C for 24 h. After incubation, MIC and MFC were determined. The lowest concentrations that were not inducing microscopically observed growth were considered as MIC. For microscopic determination of growth, we used inverted microscope Nikon Eclipse TS2 (Amsterdam, Netherland) and examined the fungal growth in the wells of 96-well microtiter plates compared to the control (untreated yeast cells). MFC values were determined as concentrations without visible growth after serial sub-cultivation of 10 µL of samples at 37 °C for 24 h. Ketoconazole and amphotericin B (SigmaAldrich, Darmstadt, Germany) were used as an antifungal control. The tested flavonoids were obtained from Extrasynthese, Rhone, France.

C. albicans 10/15 = assay: Microdilution assay, MIC and MFC; assay type: cell-based; conditions: Candida albicans, C. albicans 10/15, mean ± SD of three replicates; for MFC: read-out: MFC; for MIC: read-out: MIC
From the text: as §2, §3

C. albicans 527/14 = assay: Microdilution assay, MIC and MFC; assay type: cell-based; conditions: Candida albicans, C. albicans 527/14, mean ± SD of three replicates; for MFC: read-out: MFC; for MIC: read-out: MIC
From the text: as §2, §3

C. albicans 475/15 [7] = assay: Microdilution assay, MIC and MFC; assay type: cell-based; conditions: Candida albicans, C. albicans 475/15, mean ± SD of three replicates; for MFC: read-out: MFC; for MIC: read-out: MIC
From the text: as §2, §3

ERG11 = conditions: identical assay, previously published; cited from earlier work
C. albicans biofilm = conditions: 625–5000 µg/mL; C. albicans ATCC 90028; cited from earlier work
[8] = system: TIG-1 (human lung embryonic fibroblasts); conditions: read-out: LC50; TIG-1 cells; cited from earlier work
S. aureus efflux = system: S. aureus efflux; set-up: method as in PMID 25961825; conditions: S. aureus; cited from earlier work
C. albicans = conditions: cited from earlier work
[9] = system: HUVE (human umbilical vein endothelial) cells; conditions: read-out: LC50; cited from earlier work
Candida albicans = assay: Microdilution assay, MIC (strain not named); assay type: cell-based; conditions: C. albicans, this study, strain not given, read-out: minimum inhibitory concentration (MIC)
From the text: as §2, §3

SMILES | GI50 [3] [µg/mL] | impact on CDR1 expression (CDR1 [4]) | MFC (C. albicans 13/15) [µg/mL] | MIC (C. albicans 13/15) [µg/mL] | MFC (C. albicans 10/15) [µg/mL] | MIC (C. albicans 10/15) [µg/mL] | MFC (C. albicans 527/14) [µg/mL] | MIC (C. albicans 527/14) [µg/mL] | MFC (C. albicans 475/15 [7]) [µg/mL] | MIC (C. albicans 475/15 [7]) [µg/mL] | further results
O=c1cc(-c2ccc(O)cc2)oc2cc(O[C@@H]3O[C@H](CO)[C@@H](O)[C@H](O)[C@H]3O)cc(O)c12 [Apigetrin, apigetrin] | 90 ± 1 (≈ 208 µM) | downregulated; also recorded: inhibitory impact; also recorded: lowering CDR1 expression |  |  |  |  |  |  |  |  | reduction of hyphal growth (words) [1]: lowest number of cells growing in the hyphal form; also recorded: strongest anti-hyphal potential; MIC (C. albicans 475/15 [2]): 50 µg/mL (≈ 116 µM); cytotoxic effect (porcine liver cells PLP2; PLP2 cells): some cytotoxic effect; cytotoxicity (3T3-L1 pre-adipocytes): does not induce cytotoxicity; CDR1 expression level, log2FC (CDR1 [4]; 30 min, normalized to ACT1): < −1 log2FC; antibiofilm activity ([5]; MIC and subMICs): notably lowered; inhibition of biofilm formation ([5]; compound applied at MIC/2): > 60%; reduction of biofilm formation ([5]; concentration not given): more than 50%
CC(=O)N1CCN(c2ccc(OCC3COC(Cn4ccnc4)(c4ccc(Cl)cc4Cl)O3)cc2)CC1 (stereo not drawn) [Ketoconazole, reference compound] |  |  | 50 ± 0.2 (≈ 94.1 µM) | 1.6 ± 0.2 (≈ 3.01 µM) | 50 ± 0.1 (≈ 94.1 µM) | 3.1 ± 0.1 (≈ 5.83 µM) | 6.2 ± 0.1 (≈ 11.7 µM) | 3.1 ± 0.1 (≈ 5.83 µM) | 6.2 ± 0.1 (≈ 11.7 µM) | 3.1 ± 0.1 (≈ 5.83 µM) | impact on CDR1 expression (CDR1 [6]): lack; impact on ERG11 expression (words) (ERG11): lack
O=c1cc(-c2ccc(O)c(O)c2)oc2cc(O)cc(O)c12 [Luteolin, luteolin] | > 400 | did not exhibit any significant inhibitory potential | 75 ± 2 (≈ 262 µM) | 37.5 ± 1 (≈ 131 µM) | 75 ± 2 (≈ 262 µM) | 37.5 ± 1 (≈ 131 µM) | 75 ± 20 (≈ 262 µM) | 37.5 ± 1 (≈ 131 µM) | 75 ± 2 (≈ 262 µM) | 37.5 ± 1 (≈ 131 µM) | activity towards biofilm (C. albicans biofilm): inefficient; CC50 [8]: 107 µM; cytotoxic effect (porcine liver cells PLP2): did not exhibit cytotoxic effect; IC50, efflux inhibition (S. aureus efflux): 75 µg/mL (≈ 262 µM); MIC (C. albicans; clinical isolates and C. albicans 10231): > 83 µg/mL; MIC (C. albicans; different C. albicans strains, ref 13): 3100 µg/mL (≈ 10800 µM); MIC (C. albicans; different C. albicans strains, ref 15): > 1000 µg/mL; CC50 [9]: 57 µM; MIC (Candida albicans): 37.5 µg/mL (≈ 131 µM)
